Patent US5189169A (priority 1991, dated 1993)
Values joined by “and” are separate entries in the source; they are usually repeats but may differ in a detail not shown here. Equal entries are not always repeated.

Legend:
[1] = test system: three grassy weeds (wild oat, watergrass, foxtail); parameters: species or system Avena fatua, Echinochloa crusgalli, Setaria viridis; details: in vivo
yellow nutsedge [2] = test system: yellow nutsedge; parameters: species or system Cyperus esculentus; details: in vivo
[3] = test system: three broadleaf weeds (morning glory, mustard, velvetleaf); parameters: species or system Ipomoea purpurea, Brassica kaber, Abutilon theophrasti; details: in vivo
[4] = test system: three broadleaf weeds (morning glory, mustard, velvetleaf); parameters: species or system Ipomoea purpurea, Brassica kaber, Abutilon theophrasti; details: in vivo; remark: listed apart in the source
yellow nutsedge [5] = test system: yellow nutsedge; parameters: species or system Cyperus esculentus; details: in vivo; remark: listed apart in the source
[6] = test system: three broadleaf weeds: wild mustard, redroot pigweed and curly dock; test: Post-emergence herbicidal activity, broadleaf weeds (Table III); assay type: in vivo, Brassica kaber, Amaranthus retroflexus, Rumex crispus; details: 2.24 kg/ha, 2-3 weeks after treatment
Procedure: (§1) The herbicidal effect was observed by comparing the extent of weed control in test flats treated with the compounds against that occurring in similar non-treated control flats. All were applied at 3.57 lb/A (4 kg/ha) to pre-emergence and post-emergence screening flats. An 80 gal/A (748.3 1/ha) spray volume was utilized. Post-emergence flats were seeded 12 days prior to treatment. Pre-emergence flats were seeded one day prior to treatment. Overhead watering of pre-emergence flats and soil surface watering of post-emergence flats, so as to avoid wetting the foliage, were carried out for the duration of the test.
(§2) Weed seeds were planted in a flat at a seed depth of 0.5 inch (1.3 cm). Soil for flats was prepared using loam soil fortified with 17-17-17 fertilizer (N-P2 O5 -K2 O on a weight basis) and Captan 80W fungicide. The test weeds were as follows:
(§3) The spray solutions were prepared by dissolving 240 mg of test compound in 20 ml of acetone containing 1% polyoxyethylene sorbitan monolaurate emulsifier, then adding 20 ml of water to the resulting solution. The spray solutions were applied using a linear spray table. Pre-emergence flats are raised to the level of the post-emergence foliage canopy by setting the flats on a wooden block.
(§4) The degree of weed control was visually assessed and recorded as percentage control compared to the growth of the same species in an untreated check flat of the same age. The rating scale ranges from 0 to 100%, where 0 equals no effect with plant growth equal to the untreated control, and 100 equals complete kill.
(§5) Compounds 68 to 145 in Table I were tested generally similarly to Compounds No. 1 to 67 with the following differences: The rate of application was 2 lb/acre (2.24 kg/ha), no 6-day evaluations were made, and the weeds were:
Three broadleaf weeds: wild mustard, redroot pigweed (Amaranthus retroflexus) and curly dock (Rumex crispus).
(§6) Ratings were taken 2-3 weeks after treatment.

[7] = test system: four grassy weeds: wild oat, watergrass, green foxtail and crabgrass; test: Post-emergence herbicidal activity, grassy weeds (Table III); assay type: in vivo; details: 2.24 kg/ha, 2-3 weeks after treatment
Procedure: as §1, §2, §3, §4, §5
Four grassy weeds: wild oat, watergrass, green foxtail and crabgrass (Digitaria sanguinalis);
as §6

SMILES	% Control, Pre-emergence, GR avg. [1] [%]	% Control, Post-emergence, NS (yellow nutsedge [2])	% Control, Post-emergence, BL avg. [3]	% Control, Pre-emergence, BL avg. [4] [%]	% Control, Pre-emergence, NS (yellow nutsedge [5]) [%]	% Control, Post-Emergence, BL Avg. [6] [%]	% Control, Post-Emergence, GR Avg. [7] [%]
CCCCCN(CCCCC)P(=O)(SCCC)N(C)c1ccc(Cl)cc1 (stereo not shown) [Compound 17]	57	10% and 0%	50% and 43%	33	0		
CCCCSP(=O)(N(CC)CC)N(CC)CCCC (stereo not shown) [Compound 141]						86	65
CCCCN(c1ccc(F)cc1)P(=O)(SCCC)N(CCC)CCC (stereo not shown) [Compound 55]	13	0%	90% and 86%	3	5		
CCCN(CCC)P(=O)(Sc1cccc(Cl)c1)N(CCC)CCC [Compound 60]	0	0%	75% and 73%	13	0		
CCCSP(=O)(N(CCC)CCC)N(CC)c1ccc(F)cc1 (stereo not shown) [Compound 54]	0	0%	100%	8	0		
CCCCN(CC)P(=O)(SCC)N(CC)CC (stereo not shown) [Compound 138]						69	63
CCCCN(CCCC)P(=O)(SCC)N(C)C (stereo not shown) [Compound 107]						98	64
CCCN(CCC)P(=O)(SC(C)CC)N(C)c1ccccc1 (stereo not shown) [Compound 122]						79	56
CCCSP(=O)(N(CCC)CCC)N(C)c1ccc(F)c(F)c1F (stereo not shown) [Compound 47]	0	0%	100% and 98%	0	0		
CCCSP(=O)(N(CC)CC)N1CCCCCC1 (stereo not shown) [Compound 92]						86	62
CCCSP(=O)(N(CCC)CCC)N(C)c1ccc(F)cc1C (stereo not shown) [Compound 64]	3	0% and 5%	85% and 93%	0	0		
CCCSP(=O)(N(CCC)CCC)N(C)c1ccc(C#N)cc1 (stereo not shown) [Compound 41]	0	0%		0	0		
CCCCN(CCCC)P(=O)(SC1CCCCC1)N(CCCC)CCCC [Compound 136]						90	50
CCN(CC)P(=O)(SCc1ccccc1)N(CC)CC [Compound 94]						70	30
CCCN(CCC)P(=O)(SCC)N(CC)CC (stereo not shown) [Compound 144]						78	59
CCCCN(CCCC)P(=O)(SCc1ccccc1)N(C)C (stereo not shown) [Compound 113]						83	48
CCCCN(CCCC)P(=O)(SC(C)(C)C)N(C)C (stereo not shown) [Compound 106]						91	65
CCCCN(CC)P(=O)(SCCC)N(CC)CC (stereo not shown) [Compound 139]						70	65
CCCCN(CCCC)P(=O)(SCCC)N(C)c1ccc(Cl)cc1OC (stereo not shown) [Compound 18]	0	0%	30% and 60%	0	0		
CCCCSP(=O)(N(CCC)CCC)N1CCCCC1 (stereo not shown) [Compound 74]						100	47
CCCSP(=O)(N(CCC)CCC)N(C)c1ccccc1C(C)C (stereo not shown) [Compound 56]	31	0%	85% and 90%	6	0		
CCN(CC)P(=O)(SC(C)C)N1CCCCCC1 (stereo not shown) [Compound 101]						100	69

SMILES	% Control, Pre-emergence, GR avg. [1] [%]	% Control, Post-emergence, NS (yellow nutsedge [2])	% Control, Post-emergence, BL avg. [3]	% Control, Pre-emergence, BL avg. [4] [%]	% Control, Pre-emergence, NS (yellow nutsedge [5]) [%]	% Control, Post-Emergence, BL Avg. [6] [%]	% Control, Post-Emergence, GR Avg. [7] [%]
CCCCSP(=O)(N(CCC)CCC)N(C)c1ccccc1 (stereo not shown) [Compound 121]						72	59
CCN(CC)P(=O)(SC(C)C)N(CC)CC [Compound 103]						73	67
CCCCN(CC)P(=O)(SC1CCCCC1)N(CCC)CCC (stereo not shown) [Compound 137]						88	53
CCCC(CC)SP(=O)(N(CC)CC)N(CC)CC (stereo not shown) [Compound 105]						73	54.5
CCCCN(CCCC)P(=O)(SCCC)N(C)c1ccc(Cl)c(Cl)c1 (stereo not shown) [Compound 21]	0	0%	20% and 40%	0	0		
CCCCSP(=O)(N(CC)CC)N1CCCCCC1 (stereo not shown) [Compound 93]						99	73
C=CCSP(=O)(N(C)C)N(CCCC)CCCC (stereo not shown) [Compound 112]						87	56
CCCSP(=O)(N(CCC)CCC)N1CCCCC1 (stereo not shown) [Compound 73]						87	55
CCCSP(=O)(N(CCC)CCC)N(C)c1ccc(C(C)C)cc1 (stereo not shown) [Compound 58]	0	0%	70% and 61%	0	0		
CCCSP(=O)(N(CCC)CCC)N(C)c1ccc(OC(F)(F)F)c(Cl)c1 (stereo not shown) [Compound 66]	0	0% and 5%	90% and 98%	10	0		
CCCSP(=O)(N(CCC)CCC)N(C)c1ccc(F)cc1F (stereo not shown) [Compound 19]	0	0%		0			
CCCN(CCC)P(=O)(SC(C)C)N(C)c1ccccc1 (stereo not shown) [Compound 120]						71	50
CCCCN(CCC(C)C)P(=O)(SCCC)N(CCCC)CCC(C)C [Compound 52]	0	0%	90% and 86%	0	0		
CCCN(CCC)P(=O)(Sc1ccccc1Br)N(CCC)CCC [Compound 8]	0	0%	50% and 55%	0	0		
CCC(C)SP(=O)(N(CC)CC)N(CC)CC (stereo not shown) [Compound 104]						87	77
CCCCN(CC)P(=O)(SC(C)c1ccccc1)N(CC)CC (stereo not shown) [Compound 143]						69	52
CCCCCCSP(=O)(N(CCCC)CCCC)N(CCCC)CCCC [Compound 134]						90	56
C=CCSP(=O)(N(CCC)CCC)N1CCCCCC1 (stereo not shown) [Compound 100]						95	63
CCCSP(=O)(N(CC)CC)N(CC)CC [Compound 68]						87	40
CCCCN(CC)P(=O)(SC(C)C)N(CC)CC (stereo not shown) [Compound 140]						66	68
CCCCSP(=O)(N(C)C)N(CCCC)CCCC (stereo not shown) [Compound 110]						98	93
CCCN(CCC)P(=O)(SCC)N1CCCCC1 (stereo not shown) [Compound 72]						86	50
